Read-outs that look alike come from different tables or passages of the source.
Tests used:
[1] = system: male SD rats with 7/8 of their kidney arteries ligated; experiment: renal osteodystrophy model: rats with 7/8 of kidney arteries ligated, oral administration for 4 months; femur mineral content by single photon absorptiometry and bone histology; type: in vivo; conditions: sham-operated control 0.284± 0.023, ligation-operated control 0.259± 0.017
Description: In view of these circumstances, the present inventors have made extensive investigations to develop novel rat models wherein renal insufficiency induces abnormal bone quality and low bone mass similar to clinical renal osteodystrophy. As a result, the present inventors have succeeded in obtaining an animal model with such diseases. Thus, after 7/8 of kidney arteries were ligated, animals endurable even for a long breeding term with a mild renal insufficiency were selected and carefully bred for 6 months to establish an animal model with renal osteodystrophy with accompanying abnormal bone quality and low bone mass.
After male SD rats with 7/8 of their kidney arteries ligated at 11 weeks old are bred for 8 weeks, 24R, 25-(OH)₂-D₃ and 24, 25-(OH)₂-D₃ (a racemate of 24R and 24S isomers) are administered orally to the rat for 4 months, respectively.
A solution of sesame oil (the Pharmacopoeia of Japan) containing 0.5 % ethanol is utilized as the solvent. The test is conducted by using 5 groups each of which consists of 6 to 10 rats as follows: • I. sham-operated control group (normal control group, solvent administration) n=8 • II. solvent administration control group n=6 • III. 24R, 25-(OH)₂-D₃ 0.1 µg/kg n=6 • IV. 24R, 25-(OH)₂-D₃ 5.0 µg/kg n=10 • V. 24, 25-(OH)₂-D₃ 5.0 µg/kg n=10
After administration, blood is anesthetically collected and applied to a biochemical serum analysis. After femur is resected, mineral content of femur is measured by means with equipment capable of measuring bone mass (single photon absorptiometry; SPA). Further, the bone tissue sample is stained by Villaneuva's bone staining after slicing, followed by observation under a microscope.

[2] = acute toxicity, oral administration in sesame oil, death rates for 2 weeks; conditions: mouse, in vivo, sesame oil containing 0.5 % ethanol, read-out: LD₅₀ (lethal dose, 50% mortality)
Method: The active compound of the present invention is tested for acute toxicity and the resultant data is shown as follows:
The active compound of the present invention, 24R, 25-(OH)₂-D₃ is admixed with a sesame oil (containing 0.5 % ethanol) and the mixture is orally administered to 4 groups of female and male ICR mice (each group has 5 mice) (body weight: male 29 to 33 g, female 22 to 29 g). Two weeks later, toxic symptom is observed.

| Compound | bone mass (mineral content of femur, SPA) ([1]; 5.0 µg/kg orally for 4 months) [g/cm²] | LD50 at 336 h ([2]; female ICR mice) [mg/kg] | LD50 at 336 h ([2]; male ICR mice) [mg/kg] | bone mass (mineral content of femur, SPA) ([1]; 0.1 µg/kg orally for 4 months) [g/cm²] |
| --- | --- | --- | --- | --- |
| C=C1CC[C@H](O)C/C1=C/C=C1\CCC[C@]2(C)[C@@H]([C@H](C)CCC(O)C(C)(C)O)CC[C@@H]12 (some centres unmarked) [24, 25-(OH)₂-D₃, 24, 25-dihydroxycholecalciferol] | 0.282± 0.025 |  |  |  |
| C=C1CC[C@H](O)C/C1=C/C=C1\CCC[C@]2(C)[C@@H]([C@H](C)CC[C@@H](O)C(C)(C)O)CC[C@@H]12 [24R, 25-(OH)₂-D₃, 24R, 25-dihydroxycholecalciferol] | 0.292 ± 0.019 | 253 | 215 | 0.291± 0.032 |
